Source: patent US6011060A, “Chiral phenyldihydrofuranones as PDE-IV inhibitors” (Schering Aktiengesellschaft, priority 1996, dated 2000)

Target: radiolabeled Rolipram of rat brain homogenates
Assay: displacement of radiolabeled Rolipram in rat brain homogenates, in vitro (Eur. J. Pharmacol. 127, 105-115 (1986))
Format: binding
Conditions: 3H-rolipram tracer, IC50 converted: Ki = IC50/[1+(L/KD)]
Procedure: The action on the central nervous system is determined in vitro by measuring the displacement capacity of radiolabeled Rolipram of rat brain homogenates (Eur. J. Pharmacol., Vol. 127, 105-115 (1986)). The IC50 values (that concentration in which 50% inhibiting action occurs) were converted into inhibition constant Ki, which is calculated according to the formula below: […]
in which L means the concentration of the radioactive tracer and KD means the dissociation constant of the ^3 H-rolipram bond, which is determined separately.

Row | Ki [nM] | SMILES
1 | 0.48 | COc1ccc(C2(C)CCC(=O)O2)cc1OCC(C)C (racemic) [isobutyl, Racemate, (R,S)-5-(3-isobutyloxy-4-methoxyphenyl)-5-methyl-dihydro-2-furanone]
2 | 0.74 | CCCOc1cc(C2(C)CCC(=O)O2)ccc1OC (racemic) [propyl, Racemate, (R,S)-5-(4-methoxy-3-propoxyphenyl)-5-methyl-dihydro-2-furanone]
3 | 2.3 | COc1ccc([C@@]2(C)CCC(=O)O2)cc1OCC(C)C [isobutyl, (R)-(+)-enantiomer, (R)-(+)-5-(3-isobutyloxy-4-methoxyphenyl)-5-methyl-dihydro-2-furanone]
4 | 0.25 | COc1ccc([C@]2(C)CCC(=O)O2)cc1OCC(C)C [isobutyl, (S)-(-)-enantiomer, (S)-(-)-5-(3-isobutyloxy-4-methoxyphenyl)-5-methyl-dihydro-2-furanone]
5 | 7.3 | CCCOc1cc([C@@]2(C)CCC(=O)O2)ccc1OC [propyl, (R)-(+)-enantiomer, (R)-(+)-5-(4-methoxy-3-propoxyphenyl)-5-methyl-dihydro-2-furanone]
6 | 0.47 | CCCOc1cc([C@]2(C)CCC(=O)O2)ccc1OC [propyl, (S)-(-)-enantiomer, (S)-(-)-5-(4-methoxy-3-propoxyphenyl)-5-methyl-dihydro-2-furanone]

The remaining lines, values behind:

Row | SMILES | Ki [nM]
7 | COc1ccc(C2(C)CCC(=O)O2)cc1OC1CCC1 (racemic) [cyclobutyl, Racemate, (R,S)-5-(3-cyclobutyloxy-4-methoxyphenyl)-5-methyl-dihydro-2-furanone] | 0.38
8 | COc1ccc(C2(C)CCC(=O)O2)cc1OC1CCCC1 (racemic) [cyclopentyl, Racemate, (R,S)-5-(3-cyclopentyloxy-4-methoxyphenyl)-5-methyl-dihydro-2-furanone] | 0.5
9 | COc1ccc(C2(C)CCC(=O)O2)cc1OCC1CC1 (racemic) [cyclopropylmethyl, Racemate, (R,S)-5-(3-cyclopropylmethoxy-4-methoxyphenyl)-5-methyl-dihydro-2-furanone] | 0.21
10 | COc1ccc([C@@]2(C)CCC(=O)O2)cc1OC1CCC1 [cyclobutyl, (R)-(+)-enantiomer, (R)-(+)-5-(3-cyclobutyloxy-4-methoxyphenyl)-5-methyl-dihydro-2-furanone] | 1.9
11 | COc1ccc([C@]2(C)CCC(=O)O2)cc1OC1CCC1 [cyclobutyl, (S)-(-)-enantiomer, (S)-(-)-5-(3-cyclobutyloxy-4-methoxyphenyl)-5-methyl-dihydro-2-furanone] | 0.2
12 | COc1ccc([C@@]2(C)CCC(=O)O2)cc1OC1CCCC1 [cyclopentyl, (R)-(+)-enantiomer, (R)-(+)-5-(3-cyclopentyloxy-4-methoxyphenyl)-5-methyl-dihydro-2-furanone] | 2.8
13 | COc1ccc([C@]2(C)CCC(=O)O2)cc1OC1CCCC1 [cyclopentyl, (S)-(-)-enantiomer, (S)-(-)-5-(3-cyclopentyloxy-4-methoxyphenyl)-5-methyl-dihydro-2-furanone] | 0.28
14 | COc1ccc([C@@]2(C)CCC(=O)O2)cc1OCC1CC1 [cyclopropylmethyl, (R)-(+)-enantiomer, (R)-(+)-5-(3-cyclopropylmethoxy-4-methoxyphenyl)-5-methyl-dihydro-2-furanone] | 2.2
15 | COc1ccc([C@]2(C)CCC(=O)O2)cc1OCC1CC1 [cyclopropylmethyl, (S)-(-)-enantiomer, (S)-(-)-5-(3-cyclopropylmethoxy-4-methoxyphenyl)-5-methyl-dihydro-2-furanone] | 0.13
